Patent EP0863156A1, “Peptides useful as somatostatin antagonists” (American Cyanamid Company, priority 1997, dated 1998)
Square brackets hold non-standard residues; d marks the D form. Peptide text beside a SMILES is read from it.

How the values were obtained:
[1] = tested on: serum growth hormone (GH) levels; assay: In vivo serum growth hormone levels in anaesthetized rats (radioimmunoassay); set-up: species or system Male Sprague-Dawley rats; settings: for SGH: i.v., BIM 23014C 10 µg at 60 min
Description: Evaluation in anaesthetized rats. Male Sprague-Dawley rats are anaesthetized with Sagatal and fitted so as to allow efficient intravenous treatment with control and test compounds as well as frequent blood sampling. Blood samples are tested for growth hormone (GH) levels by radioimmunoassay. Thirty minutes after the initiation of blood sampling, rats are given 5 µg, 25 µg or 50 µg of peptide 1.
Peptide 1 is tested in combination with growth hormone releasing factor (GRF), to investigate whether said peptide may be mimicking the action of GRF. Anaesthetized rats are given GRF (1 µg) alone and in combination with peptide 1 (50 µg). […]

SRIF receptors = target: T1, SRIF receptors (Rattus norvegicus, UniProt P30680); assay: Yeast bioassay for SRIF antagonist activity (zone of growth inhibition of LY364 cells growing in response to SRIF); type: cell-based; settings: 10 µL of 5 mg/mL on filter disk, S-14 10 nM
T1 construct: expressed in transfected cells; host or cells: Saccharomyces cerevisiae strain LY364
T1 sequence (P30680 whole entry): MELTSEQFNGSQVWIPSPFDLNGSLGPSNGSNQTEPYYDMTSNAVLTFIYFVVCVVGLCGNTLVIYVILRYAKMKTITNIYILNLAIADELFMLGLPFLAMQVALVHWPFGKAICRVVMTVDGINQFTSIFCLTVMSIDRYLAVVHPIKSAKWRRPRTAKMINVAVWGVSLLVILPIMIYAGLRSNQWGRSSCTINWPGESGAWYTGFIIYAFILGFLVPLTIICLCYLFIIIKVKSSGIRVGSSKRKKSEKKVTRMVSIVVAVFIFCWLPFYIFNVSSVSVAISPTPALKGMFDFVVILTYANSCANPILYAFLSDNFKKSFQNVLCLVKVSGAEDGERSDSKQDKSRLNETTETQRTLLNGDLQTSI
Description: Agar plates containing LY364 cells that are growing in the presence of added SRIF are the basis for a sensitive SRIF antagonist assay, whereby zones of growth inhibition result from the addition of SRIF antagonists to the surface of the agar plate (see L.A. Price, et al., Molecular and Cellular Biology, 15, 6188-6195, 1995, incorporated herein by reference).
In this assay, LY364 cells are grown overnight in 2 mL of synthetic complete(SC) medium (3.4 g/L YNB without amino acids and ammonium sulfate, 10 g/L ammonium sulfate and 1.4 g/L CSM-ura-trp) with glucose (2%) and without uracil and tryptophan. These cells are washed and cultured for 4 to 8 hours in 5 mL of SC medium with lactate (3%) and without uracil and tryptophan, and finally grown overnight in 5 mL of SC medium with galactose (2%) and without uracil and tryptophan. Molten (50° C) SC agar medium with galactose (2%) and without uracil, tryptophan and histidine is adjusted to pH 6.8 with KOH, mixed with 2 x 10^4 cells/mL and SRIF (S-14, 10 nM) and poured into square (20 x 20 cm) petri dishes. Sterile filter disks are placed on the surface of the agar, and saturated with 10 µL of water or DMSO containing 5 mg/mL test peptides. After three days, the plates display a uniform cloudy background of […] cells growing in response to the added SRIF. […] This zone is quantified by measuring its diameter (mm), which varies according to the potency of the SRIF antagonist. Those peptides or mixtures of peptides displaying the largest zones of inhibition are further characterized.
Values are compared among samples in the same experiment, as the degree of yeast growth varies somewhat from assay to assay. For the first five sample types, in which progressively less complex mixtures of peptides are found, this assay is the primary determining factor in choosing which samples form the basis of subsequent syntheses.
Plates are read after 3 days. Samples shown in Table I in bold type are chosen for further synthesis. In Table I, all amino acids are D-amino acids and dashes represent undefined amino acid residues.

SSTR2 = SSTR2 (Rattus norvegicus, UniProt P30680); assay: Competitive binding of 125I labeled S-14 to membranes of cells expressing transfected SSTR2 (SPA); set-up: expressed in transfected cells
Chain of SSTR2 (P30680 whole entry): as above
Description: Membrane preparation. Tissue culture cell lines expressing transfected cDNA clones of SSTR2 and SSTR5 are used as a source of plasma membranes which specifically bind ^125I labeled S-14 (Amersham, Arlington Heights, IL). Cells are removed from culture dishes by incubation at 4°C for 5 minutes in PBS containing 1 mM EDTA, spun down (2,000 rpm, 5') and resuspended in 15 mL homogenization buffer (1 mM sodium bicarbonate pH 7.2, 1 mM EDTA, 1 mM EGTA and the following protease inhibitors: leupeptin and aprotenin at 5 µg/mL and benzamidine and bacitracin at 100 µg/mL). Cells are given 20 strokes with a Dounce homogenizer on ice and spun at 2000 rpm for 10 minutes. Membranes are isolated from the supernatant by centrifugation at 17,000 rpm for 30 minutes. The membrane pellet is washed once in 15 mL homogenization buffer and once in storage buffer (25 mM Tris pH 7.4 containing protease inhibitors). […] The membrane pellet is resuspended in storage buffer, measured for protein concentration (BioRad, CA) and stored at -80°C.
Binding assay. […] Bound radioligand is determined by counting in a Microbeta Liquid Scintillation counter (Wallac, Gaithersburg, MD). Binding data is plotted and IC50 and Ki values are calculated for test compounds using Prism software (Graphpad Software Inc., San Diego, CA) and are shown in Table V. Binding is expressed as Ki, µM.

For `CC[C@@H](C)[C@@H](NC(=O)[C@@H](Cc1ccccc1)NC(=O)[C@@H](Cc1c[nH]cn1)NC(C)=O)C(=O)N[C@H](CCCNC(=N)N)C(=O)N[C@H](Cc1c[nH]c2ccccc12)C(=O)N[C@H](Cc1ccccc1)C(N)=O` [Peptide 1, Ac-D-His-D-Phe-D-Ile-D-Arg-D-Trp-D-Phe-NH2] (Ac-[dH][dF][dI][dR][dW][dF]-NH2), the “effect upon GH levels” value ([1]; 5 µg, 25 µg or 50 µg of peptide 1 thirty minutes after initiation of blood sampling) was “dose related effect upon GH levels”, the “serum GH levels after first dose” value ([1]; highest dose (50 µg) of peptide 1 at 30 min) was “significant increase in serum GH levels” and the “SGH” value ([1]; Peptide 1 5 µg at 30 and 90 min, time 0 min (before dosing)) was 17.0 ng/mL. The “SGH” value ([1]; Peptide 1 5 µg at 30 and 90 min, time 15 min (before dosing)) was 13.6 ng/mL, the “SGH” value ([1]; Peptide 1 5 µg at 30 and 90 min, time 30 min (time of first dose)) was 12.2 ng/mL and the “SGH” value ([1]; Peptide 1 5 µg at 30 and 90 min, time 35 min) was 17.5 ng/mL. For the same compound, the “SGH” value ([1]; Peptide 1 5 µg at 30 and 90 min, time 40 min) was 14.9 ng/mL, the “SGH” value ([1]; Peptide 1 5 µg at 30 and 90 min, time 45 min) was 15.7 ng/mL and the “SGH” value ([1]; Peptide 1 5 µg at 30 and 90 min, time 60 min (time of BIM dose)) was 11.4 ng/mL. The “SGH” value ([1]; Peptide 1 5 µg at 30 and 90 min, time 75 min) was 7.0 ng/mL, the “SGH” value ([1]; Peptide 1 5 µg at 30 and 90 min, time 90 min (time of second dose)) was 2.4 ng/mL and the “SGH” value ([1]; Peptide 1 5 µg at 30 and 90 min, time 95 min) was 3.1 ng/mL. For the same compound, the “SGH” value ([1]; Peptide 1 5 µg at 30 and 90 min, time 100 min) was 1.7 ng/mL, the “SGH” value ([1]; Peptide 1 5 µg at 30 and 90 min, time 105 min) was 1.7 ng/mL and the “SGH” value ([1]; Peptide 1 5 µg at 30 and 90 min, time 135 min) was 1.1 ng/mL. The “SGH” value ([1]; Peptide 1 25 µg at 30 and 90 min, time 0 min (before dosing)) was 19.2 ng/mL, the “SGH” value ([1]; Peptide 1 25 µg at 30 and 90 min, time 15 min (before dosing)) was 17.3 ng/mL and the “SGH” value ([1]; Peptide 1 25 µg at 30 and 90 min, time 30 min (time of first dose)) was 16.6 ng/mL. The “SGH” value ([1]; Peptide 1 25 µg at 30 and 90 min, time 35 min) was 18.4 ng/mL, the “SGH” value ([1]; Peptide 1 25 µg at 30 and 90 min, time 40 min) was 17.5 ng/mL and the “SGH” value ([1]; Peptide 1 25 µg at 30 and 90 min, time 45 min) was 14.0 ng/mL. For the same compound, the “SGH” value ([1]; Peptide 1 25 µg at 30 and 90 min, time 60 min (time of BIM dose)) was 13.1 ng/mL, the “SGH” value ([1]; Peptide 1 25 µg at 30 and 90 min, time 75 min) was 6.8 ng/mL and the “SGH” value ([1]; Peptide 1 25 µg at 30 and 90 min, time 90 min (time of second dose)) was 5.1 ng/mL. For the same compound, the “SGH” value ([1]; Peptide 1 25 µg at 30 and 90 min, time 95 min) was 11.4 ng/mL, the “SGH” value ([1]; Peptide 1 25 µg at 30 and 90 min, time 100 min) was 10.5 ng/mL and the “SGH” value ([1]; Peptide 1 25 µg at 30 and 90 min, time 105 min) was 7.9 ng/mL. For the same compound, the “SGH” value ([1]; Peptide 1 25 µg at 30 and 90 min, time 135 min) was 5.2 ng/mL, the “SGH” value ([1]; Peptide 1 50 µg at 30 and 90 min, time 0 min (before dosing)) was 22.7 ng/mL and the “SGH” value ([1]; Peptide 1 50 µg at 30 and 90 min, time 15 min (before dosing)) was 17.0 ng/mL. For the same compound, the “SGH” value ([1]; Peptide 1 50 µg at 30 and 90 min, time 30 min (time of first dose)) was 19.7 ng/mL, the “SGH” value ([1]; Peptide 1 50 µg at 30 and 90 min, time 35 min) was 50.2 ng/mL and the “SGH” value ([1]; Peptide 1 50 µg at 30 and 90 min, time 40 min) was 23.4 ng/mL. For the same compound, the “SGH” value ([1]; Peptide 1 50 µg at 30 and 90 min, time 45 min) was 15.5 ng/mL, the “SGH” value ([1]; Peptide 1 50 µg at 30 and 90 min, time 60 min (time of BIM dose)) was 17.1 ng/mL and the “SGH” value ([1]; Peptide 1 50 µg at 30 and 90 min, time 75 min) was 3.5 ng/mL. The “SGH” value ([1]; Peptide 1 50 µg at 30 and 90 min, time 90 min (time of second dose)) was 1.9 ng/mL, the “SGH” value ([1]; Peptide 1 50 µg at 30 and 90 min, time 95 min) was 67.3 ng/mL and the “SGH” value ([1]; Peptide 1 50 µg at 30 and 90 min, time 100 min) was 31.8 ng/mL. For the same compound, the “SGH” value ([1]; Peptide 1 50 µg at 30 and 90 min, time 105 min) was 10.5 ng/mL, the “SGH” value ([1]; Peptide 1 50 µg at 30 and 90 min, time 135 min) was 2.6 ng/mL and the “serum GH levels after second dose” value ([1]; second dose of peptide 1, highest dose (50 µg), after BIM 23014C) was “even greater increase in serum GH levels”. For the same compound, the “Yeast Assay (mm)” value (SRIF receptors; Table III, diameter of zone of growth inhibition) was 20 mm, the “Inhibition Zone (mm)” value (SRIF receptors; sample type 4th iteration, read after 3 days, compare only within same experiment) was 18 mm and the Ki (SSTR2) was 140 nM.
